Converted amounts (≈) assume the structure as drawn. One block for each molecule: values may come before it. The source made the active and inactive calls. The calls are words filed in the database; no cut-off is given here.
Legend:
Acinetobacter baumannii [1] = experiment: Antimicrobial activity against Acinetobacter baumannii isolate A expressing beta-lactamase OXA-164 isolated from tracheal secretion of patient in presence of Sulbactam by vitek 2 system
Acinetobacter baumannii [2] = experiment: Antimicrobial activity against Acinetobacter baumannii isolate D expressing beta-lactamase OXA-164 isolated from tracheal secretion of patient in presence of Sulbactam by vitek 2 system
Acinetobacter baumannii [3] = experiment: Antimicrobial activity against Acinetobacter baumannii isolate L expressing beta-lactamase OXA-58 isolated from tracheal secretion of patient in presence of Sulbactam by vitek 2 system
Acinetobacter baumannii [4] = experiment: Antimicrobial activity against Acinetobacter baumannii isolate F expressing beta-lactamase OXA-164 isolated from tracheostoma of patient in presence of Sulbactam by vitek 2 system
Acinetobacter baumannii [5] = experiment: Antimicrobial activity against Acinetobacter baumannii isolate K expressing beta-lactamase OXA-58 isolated from blood culture of patient in presence of Sulbactam by vitek 2 system
Acinetobacter baumannii [6] = experiment: Antimicrobial activity against Acinetobacter baumannii isolate I expressing beta-lactamase OXA-58 isolated from tracheal secretion of patient in presence of Sulbactam by vitek 2 system
Acinetobacter baumannii [7] = experiment: Antimicrobial activity against Acinetobacter baumannii isolate H expressing beta-lactamase OXA-58 isolated from tracheal secretion of patient in presence of Sulbactam by vitek 2 system
Acinetobacter baumannii [8] = experiment: Antimicrobial activity against Acinetobacter baumannii isolate C expressing beta-lactamase OXA-164 isolated from tracheal secretion of patient in presence of Sulbactam by vitek 2 system
Acinetobacter baumannii [9] = experiment: Antimicrobial activity against Acinetobacter baumannii isolate J expressing beta-lactamase OXA-58 isolated from bedsore in presence of Sulbactam by vitek 2 system
Acinetobacter baumannii [10] = experiment: Antimicrobial activity against Acinetobacter baumannii isolate E expressing beta-lactamase OXA-164 isolated from tracheal secretion of patient in presence of Sulbactam by vitek 2 system
Acinetobacter baumannii [11] = experiment: Antimicrobial activity against Acinetobacter baumannii isolate B expressing beta-lactamase OXA-164 isolated from tracheal secretion of patient in presence of Sulbactam by vitek 2 system
Acinetobacter baumannii [12] = experiment: Antimicrobial activity against Acinetobacter baumannii isolate M expressing beta-lactamase OXA-58 isolated from tracheal secretion of patient in presence of Sulbactam by vitek 2 system
Acinetobacter baumannii [13] = experiment: Antimicrobial activity against Acinetobacter baumannii isolate G expressing beta-lactamase OXA-58 isolated from tracheal secretion of patient in presence of Sulbactam by vitek 2 system
Acinetobacter baumannii [14] = experiment: Antimicrobial activity against Acinetobacter baumannii isolate G expressing beta-lactamase OXA-58 isolated from tracheal secretion of patient by vitek 2 system
Acinetobacter baumannii [15] = experiment: Antimicrobial activity against Acinetobacter baumannii isolate G expressing beta-lactamase OXA-58 isolated from tracheal secretion of patient in presence of Tazobactam by vitek 2 system
Acinetobacter baumannii [16] = experiment: Antimicrobial activity against Acinetobacter baumannii isolate D expressing beta-lactamase OXA-164 isolated from tracheal secretion of patient in presence of Tazobactam by vitek 2 system
Acinetobacter baumannii [17] = experiment: Antimicrobial activity against Acinetobacter baumannii isolate L expressing beta-lactamase OXA-58 isolated from tracheal secretion of patient by vitek 2 system
Acinetobacter baumannii [18] = experiment: Antimicrobial activity against Acinetobacter baumannii isolate D expressing beta-lactamase OXA-164 isolated from tracheal secretion of patient by vitek 2 system
Acinetobacter baumannii [19] = experiment: Antimicrobial activity against Acinetobacter baumannii isolate I expressing beta-lactamase OXA-58 isolated from tracheal secretion of patient in presence of Tazobactam by vitek 2 system
Acinetobacter baumannii [20] = experiment: Antimicrobial activity against Acinetobacter baumannii isolate F expressing beta-lactamase OXA-164 isolated from tracheostoma of patient by vitek 2 system
Acinetobacter baumannii [21] = experiment: Antimicrobial activity against Acinetobacter baumannii isolate F expressing beta-lactamase OXA-164 isolated from tracheostoma of patient in presence of Tazobactam by vitek 2 system
Acinetobacter baumannii [22] = experiment: Antimicrobial activity against Acinetobacter baumannii isolate A expressing beta-lactamase OXA-164 isolated from tracheal secretion of patient by vitek 2 system
Acinetobacter baumannii [23] = experiment: Antimicrobial activity against Acinetobacter baumannii isolate M expressing beta-lactamase OXA-58 isolated from tracheal secretion of patient in presence of Tazobactam by vitek 2 system
Acinetobacter baumannii [24] = experiment: Antimicrobial activity against Acinetobacter baumannii isolate K expressing beta-lactamase OXA-58 isolated from blood culture of patient by vitek 2 system
Acinetobacter baumannii [25] = experiment: Antimicrobial activity against Acinetobacter baumannii isolate B expressing beta-lactamase OXA-164 isolated from tracheal secretion of patient in presence of Tazobactam by vitek 2 system
Acinetobacter baumannii [26] = experiment: Antimicrobial activity against Acinetobacter baumannii isolate J expressing beta-lactamase OXA-58 isolated from bedsore by vitek 2 system
Acinetobacter baumannii [27] = experiment: Antimicrobial activity against Acinetobacter baumannii isolate M expressing beta-lactamase OXA-58 isolated from tracheal secretion of patient by vitek 2 system
Acinetobacter baumannii [28] = experiment: Antimicrobial activity against Acinetobacter baumannii isolate A expressing beta-lactamase OXA-164 isolated from tracheal secretion of patient in presence of Tazobactam by vitek 2 system
Acinetobacter baumannii [29] = experiment: Antimicrobial activity against Acinetobacter baumannii isolate H expressing beta-lactamase OXA-58 isolated from tracheal secretion of patient by vitek 2 system
Acinetobacter baumannii [30] = experiment: Antimicrobial activity against Acinetobacter baumannii isolate E expressing beta-lactamase OXA-164 isolated from tracheal secretion of patient by vitek 2 system
Acinetobacter baumannii [31] = experiment: Antimicrobial activity against Acinetobacter baumannii isolate J expressing beta-lactamase OXA-58 isolated from bedsore in presence of Tazobactam by vitek 2 system
Acinetobacter baumannii [32] = experiment: Antimicrobial activity against Acinetobacter baumannii isolate B expressing beta-lactamase OXA-164 isolated from tracheal secretion of patient by vitek 2 system
Acinetobacter baumannii [33] = experiment: Antimicrobial activity against Acinetobacter baumannii isolate E expressing beta-lactamase OXA-164 isolated from tracheal secretion of patient in presence of Tazobactam by vitek 2 system
Acinetobacter baumannii [34] = experiment: Antimicrobial activity against Acinetobacter baumannii isolate C expressing beta-lactamase OXA-164 isolated from tracheal secretion of patient by vitek 2 system
Acinetobacter baumannii [35] = experiment: Antimicrobial activity against Acinetobacter baumannii isolate H expressing beta-lactamase OXA-58 isolated from tracheal secretion of patient in presence of Tazobactam by vitek 2 system
Acinetobacter baumannii [36] = experiment: Antimicrobial activity against Acinetobacter baumannii isolate I expressing beta-lactamase OXA-58 isolated from tracheal secretion of patient by vitek 2 system
Acinetobacter baumannii [37] = experiment: Antimicrobial activity against Acinetobacter baumannii isolate C expressing beta-lactamase OXA-164 isolated from tracheal secretion of patient in presence of Tazobactam by vitek 2 system
Acinetobacter baumannii [38] = experiment: Antimicrobial activity against Acinetobacter baumannii isolate L expressing beta-lactamase OXA-58 isolated from tracheal secretion of patient in presence of Tazobactam by vitek 2 system
Acinetobacter baumannii [39] = experiment: Antimicrobial activity against Acinetobacter baumannii isolate K expressing beta-lactamase OXA-58 isolated from blood culture of patient in presence of Tazobactam by vitek 2 system
Acinetobacter baumannii [40] = experiment: Antimicrobial activity against Acinetobacter baumannii isolate M expressing beta-lactamase OXA-58 isolated from tracheal secretion of patient by Etest
Acinetobacter baumannii [41] = experiment: Antimicrobial activity against Acinetobacter baumannii isolate A expressing beta-lactamase OXA-164 isolated from tracheal secretion of patient by Etest
Acinetobacter baumannii [42] = experiment: Antimicrobial activity against Acinetobacter baumannii isolate F expressing beta-lactamase OXA-164 isolated from tracheostoma of patient by Etest
Acinetobacter baumannii [43] = experiment: Antimicrobial activity against Acinetobacter baumannii isolate I expressing beta-lactamase OXA-58 isolated from tracheal secretion of patient by Etest
Acinetobacter baumannii [44] = experiment: Antimicrobial activity against Acinetobacter baumannii isolate D expressing beta-lactamase OXA-164 isolated from tracheal secretion of patient by Etest
Acinetobacter baumannii [45] = experiment: Antimicrobial activity against Acinetobacter baumannii isolate H expressing beta-lactamase OXA-58 isolated from tracheal secretion of patient by Etest
Escherichia coli [46] = experiment: Antimicrobial activity against Escherichia coli NEB 5-alpha harboring beta-lactamase OXA-164 by Etest; assay type: functional
Acinetobacter baumannii [47] = experiment: Antimicrobial activity against Acinetobacter baumannii isolate E expressing beta-lactamase OXA-164 isolated from tracheal secretion of patient by Etest
Acinetobacter baumannii [48] = experiment: Antimicrobial activity against Acinetobacter baumannii isolate K expressing beta-lactamase OXA-58 isolated from blood culture of patient by Etest
Acinetobacter baumannii [49] = experiment: Antimicrobial activity against Acinetobacter baumannii ATCC 19606 harboring beta-lactamase OXA-58 by Etest; assay type: functional; settings: ATCC 19606 = CIP 70.34 = JCM 6841
Escherichia coli [50] = experiment: Antimicrobial activity against Escherichia coli NEB 5-alpha harboring beta-lactamase OXA-58 by Etest; assay type: functional
Acinetobacter baumannii [51] = experiment: Antimicrobial activity against Acinetobacter baumannii ATCC 17978 harboring plasmid WH1266 by Etest; assay type: functional
Acinetobacter baumannii [52] = experiment: Antimicrobial activity against Acinetobacter baumannii ATCC 19606 harboring beta-lactamase OXA-164 by Etest; assay type: functional; settings: ATCC 19606 = CIP 70.34 = JCM 6841
Escherichia coli [53] = experiment: Antimicrobial activity against Escherichia coli NEB 5-alpha harboring plasmid WH1266 by Etest; assay type: functional
Acinetobacter baumannii [54] = experiment: Antimicrobial activity against Acinetobacter baumannii isolate C expressing beta-lactamase OXA-164 isolated from tracheal secretion of patient by Etest
Acinetobacter baumannii [55] = experiment: Antimicrobial activity against Acinetobacter baumannii isolate G expressing beta-lactamase OXA-58 isolated from tracheal secretion of patient by Etest
Acinetobacter baumannii [56] = experiment: Antimicrobial activity against Acinetobacter baumannii isolate B expressing beta-lactamase OXA-164 isolated from tracheal secretion of patient by Etest
Acinetobacter baumannii [57] = experiment: Antimicrobial activity against Acinetobacter baumannii isolate J expressing beta-lactamase OXA-58 isolated from bedsore by Etest
Acinetobacter baumannii [58] = experiment: Antimicrobial activity against Acinetobacter baumannii isolate L expressing beta-lactamase OXA-58 isolated from tracheal secretion of patient by Etest
Acinetobacter baumannii [59] = experiment: Antimicrobial activity against Acinetobacter baumannii ATCC 17978 harboring beta-lactamase OXA-164 by Etest; assay type: functional
Acinetobacter baumannii [60] = experiment: Antimicrobial activity against Acinetobacter baumannii ATCC 19606 harboring plasmid WH1266 by Etest; assay type: functional; settings: ATCC 19606 = CIP 70.34 = JCM 6841
Acinetobacter baumannii [61] = experiment: Antimicrobial activity against Acinetobacter baumannii ATCC 17978 harboring beta-lactamase OXA-58 by Etest; assay type: functional

MIC (Acinetobacter baumannii [1]): inactive | MIC (Acinetobacter baumannii [2]): inactive | MIC (Acinetobacter baumannii [3]): inactive | MIC (Acinetobacter baumannii [4]): inactive | MIC (Acinetobacter baumannii [5]): inactive | MIC (Acinetobacter baumannii [6]): inactive | MIC (Acinetobacter baumannii [7]): inactive | MIC (Acinetobacter baumannii [8]): inactive | MIC (Acinetobacter baumannii [9]): inactive | MIC (Acinetobacter baumannii [10]): inactive | MIC (Acinetobacter baumannii [11]): inactive | MIC (Acinetobacter baumannii [12]): inactive | MIC (Acinetobacter baumannii [13]): inactive
Compound: CC1(C)S[C@@H]2[C@H](NC(=O)[C@H](N)c3ccccc3)C(=O)N2[C@H]1C(=O)O

MIC (Acinetobacter baumannii [14]): inactive | MIC (Acinetobacter baumannii [15]): inactive | MIC (Acinetobacter baumannii [16]): inactive | MIC (Acinetobacter baumannii [17]): inactive | MIC (Acinetobacter baumannii [18]): inactive | MIC (Acinetobacter baumannii [19]): inactive | MIC (Acinetobacter baumannii [20]): inactive | MIC (Acinetobacter baumannii [21]): inactive | MIC (Acinetobacter baumannii [22]): inactive | MIC (Acinetobacter baumannii [23]): inactive | MIC (Acinetobacter baumannii [24]): inactive | MIC (Acinetobacter baumannii [25]): inactive | MIC (Acinetobacter baumannii [26]): inactive | MIC (Acinetobacter baumannii [27]): inactive | MIC (Acinetobacter baumannii [28]): inactive | MIC (Acinetobacter baumannii [29]): inactive | MIC (Acinetobacter baumannii [30]): inactive | MIC (Acinetobacter baumannii [31]): inactive | MIC (Acinetobacter baumannii [32]): inactive | MIC (Acinetobacter baumannii [33]): inactive | MIC (Acinetobacter baumannii [34]): inactive | MIC (Acinetobacter baumannii [35]): inactive | MIC (Acinetobacter baumannii [36]): inactive | MIC (Acinetobacter baumannii [37]): inactive | MIC (Acinetobacter baumannii [38]): inactive | MIC (Acinetobacter baumannii [39]): inactive
Compound: CCN1CCN(C(=O)N[C@@H](C(=O)N[C@@H]2C(=O)N3[C@@H]2SC(C)(C)[C@@H]3C(=O)O)c2ccccc2)C(=O)C1=O

Compound: C[C@@H](O)[C@H]1C(=O)N2C(C(=O)O)=C(S[C@@H]3CN[C@H](C(=O)N(C)C)C3)[C@H](C)[C@H]12 [MEROPENEM]
MIC (Acinetobacter baumannii [14]): ≥ 16 µg/mL | MIC (Acinetobacter baumannii [40]): ≥ 64 µg/mL | MIC (Acinetobacter baumannii [41]): 32 µg/mL (≈ 83.4 µM) | MIC (Acinetobacter baumannii [17]): ≥ 16 µg/mL | MIC (Acinetobacter baumannii [18]): 8 µg/mL (≈ 20.9 µM) | MIC (Acinetobacter baumannii [42]): 16 µg/mL (≈ 41.7 µM) | MIC (Acinetobacter baumannii [20]): 4 µg/mL (≈ 10.4 µM) | MIC (Acinetobacter baumannii [22]): 2 µg/mL (≈ 5.22 µM) | MIC (Acinetobacter baumannii [43]): ≥ 64 µg/mL | MIC (Acinetobacter baumannii [44]): 32 µg/mL (≈ 83.4 µM) | MIC (Acinetobacter baumannii [45]): ≥ 64 µg/mL | MIC (Acinetobacter baumannii [24]): 8 µg/mL (≈ 20.9 µM) | MIC (Escherichia coli [46]): 0.032 µg/mL (≈ 0.0834 µM) | MIC (Acinetobacter baumannii [26]): 8 µg/mL (≈ 20.9 µM) | MIC (Acinetobacter baumannii [27]): 8 µg/mL (≈ 20.9 µM) | MIC (Acinetobacter baumannii [29]): 8 µg/mL (≈ 20.9 µM) | MIC (Acinetobacter baumannii [30]): 8 µg/mL (≈ 20.9 µM) | MIC (Acinetobacter baumannii [47]): 32 µg/mL (≈ 83.4 µM) | MIC (Acinetobacter baumannii [48]): ≥ 64 µg/mL | MIC (Acinetobacter baumannii [49]): > 32 µg/mL | MIC (Acinetobacter baumannii [32]): 4 µg/mL (≈ 10.4 µM) | MIC (Escherichia coli [50]): 0.032 µg/mL (≈ 0.0834 µM) | MIC (Acinetobacter baumannii [51]): 0.25 µg/mL (≈ 0.652 µM) | MIC (Acinetobacter baumannii [52]): 32 µg/mL (≈ 83.4 µM) | MIC (Acinetobacter baumannii [34]): 8 µg/mL (≈ 20.9 µM) | MIC (Escherichia coli [53]): 0.012 µg/mL (≈ 0.0313 µM) | MIC (Acinetobacter baumannii [54]): 8 µg/mL (≈ 20.9 µM) | MIC (Acinetobacter baumannii [36]): 8 µg/mL (≈ 20.9 µM) | MIC (Acinetobacter baumannii [55]): ≥ 64 µg/mL | MIC (Acinetobacter baumannii [56]): 32 µg/mL (≈ 83.4 µM) | MIC (Acinetobacter baumannii [57]): ≥ 64 µg/mL | MIC (Acinetobacter baumannii [58]): ≥ 64 µg/mL | MIC (Acinetobacter baumannii [59]): > 32 µg/mL | MIC (Acinetobacter baumannii [60]): 0.19 µg/mL (≈ 0.495 µM) | MIC (Acinetobacter baumannii [61]): > 32 µg/mL

From ChEMBL document CHEMBL1687815, “In vivo selection of a missense mutation in adeR and conversion of the novel blaOXA-164 gene into blaOXA-58 in carbapenem-resistant Acinetobacter baumannii isolates from a hospitalized patient” (2010)
